# Experimental data taken from ChEMBL document CHEMBL1155520, “Novel 8a-aza-8a-homoerythromycin--4''-(3-substituted-amino)propionates with broad spectrum antibacterial activity” (2010).
# What was measured:
# Format in all cases: functional
# Streptococcus pneumoniae [1] = experiment: Antimicrobial activity against inducible macrolide and constitutive lincosamide, streptogramin-resistant Streptococcus pneumoniae 58 Spain
# Streptococcus pneumoniae [2] = experiment: Antimicrobial activity against macrolide-sensitive Streptococcus pneumoniae SPO 30
# Streptococcus pyogenes [3] = experiment: Antimicrobial activity against macrolide-sensitive Streptococcus pyogenes 3665
# Streptococcus pneumoniae [4] = experiment: Antimicrobial activity against inducible macrolide, lincosamide, streptogramin-resistant Streptococcus pneumoniae 134 GRM
# Streptococcus pyogenes [5] = experiment: Antimicrobial activity against inducible macrolide, lincosamide, streptogramin-resistant Streptococcus pyogenes Finland 11
# Staphylococcus aureus [6] = experiment: Antimicrobial activity against macrolide-sensitive Staphylococcus aureus PK1
# Staphylococcus aureus [7] = experiment: Antimicrobial activity against macrolide-sensitive Staphylococcus aureus ATCC 13709
# Streptococcus pyogenes [8] = experiment: Antimicrobial activity against inducible macrolide-resistant Streptococcus pyogenes Finland 3
# Streptococcus pneumoniae [9] = experiment: Antimicrobial activity against macrolide-resistant Streptococcus pneumoniae Ci137
# Streptococcus pyogenes [10] = experiment: Antimicrobial activity against inducible macrolide and constitutive lincosamide, streptogramin-resistant Streptococcus pyogenes 166 GR-micro
# Streptococcus pneumoniae [11] = experiment: Antimicrobial activity against inducible macrolide and constitutive lincosamide, streptogramin-resistant Streptococcus pneumoniae 4636
# Haemophilus influenzae = experiment: Antimicrobial activity against Haemophilus influenzae ATCC 49247
Compound,MIC (Streptococcus pneumoniae [1]) [µg/mL],MIC (Streptococcus pneumoniae [2]) [µg/mL],MIC (Streptococcus pyogenes [3]) [µg/mL],MIC (Streptococcus pneumoniae [4]) [µg/mL],MIC (Streptococcus pyogenes [5]) [µg/mL],MIC (Staphylococcus aureus [6]) [µg/mL],MIC (Staphylococcus aureus [7]) [µg/mL],MIC (Streptococcus pyogenes [8]) [µg/mL],MIC (Streptococcus pneumoniae [9]) [µg/mL],MIC (Streptococcus pyogenes [10]) [µg/mL],MIC (Streptococcus pneumoniae [11]) [µg/mL],MIC (Haemophilus influenzae) [µg/mL]
CC[C@H]1OC(=O)[C@H](C)[C@@H](O[C@H]2C[C@@](C)(OC)[C@@H](O)[C@H](C)O2)[C@H](C)[C@@H](O[C@@H]2O[C@H](C)C[C@H](N(C)C)[C@H]2O)[C@](C)(O)C[C@@H](C)NC(=O)[C@H](C)[C@@H](O)[C@]1(C)O,> 64,< 0.13,< 0.13,> 64,16,> 64,1,32,32,> 64,> 64,2
CC[C@H]1OC(=O)[C@H](C)[C@@H](O[C@H]2C[C@@](C)(OC)[C@@H](O)[C@H](C)O2)[C@H](C)[C@@H](O[C@@H]2O[C@H](C)C[C@H](N(C)C)[C@H]2O)[C@](C)(OC)C[C@@H](C)NC(=O)[C@H](C)[C@@H](O)[C@]1(C)O,> 64,< 0.13,< 0.13,> 64,8,> 64,0.5,32,16,> 64,> 64,4
CC[C@H]1OC(=O)[C@H](C)[C@@H](O[C@H]2C[C@@](C)(OC)[C@@H](OC(=O)CCNCCNc3cc4c(cc3F)c(=O)c(C(=O)O)cn4C3CC3)[C@H](C)O2)[C@H](C)[C@@H](O[C@@H]2O[C@H](C)C[C@H](N(C)C)[C@H]2O)[C@](C)(OC)C[C@@H](C)NC(=O)[C@H](C)[C@@H](O)[C@]1(C)O,< 0.13,,,< 0.13,< 0.13,< 0.13,< 0.13,0.5,< 0.13,0.25,,4
CC[C@H]1OC(=O)[C@H](C)C(=O)[C@H](C)[C@@H](O[C@@H]2O[C@H](C)C[C@H](N(C)C)[C@H]2O)[C@](C)(OC)C[C@@H](C)C(=O)[C@H](C)[C@H]2N(CCCCn3cnc(-c4cccnc4)c3)C(=O)O[C@]12C [TELITHROMYCIN],0.25,,,0.25,0.06,0.125,< 0.06,0.5,0.25,16,,2
CC[C@H]1OC(=O)[C@H](C)[C@@H](O[C@H]2C[C@@](C)(OC)[C@@H](OC(=O)CCNCCNc3cc4c(cc3F)c(=O)c(C(=O)O)cn4C3CC3)[C@H](C)O2)[C@H](C)[C@@H](O[C@@H]2O[C@H](C)C[C@H](N(C)C)[C@H]2O)[C@](C)(O)C[C@@H](C)NC(=O)[C@H](C)[C@@H](O)[C@]1(C)O,< 0.13,,,< 0.13,< 0.13,0.5,0.25,0.25,< 0.13,0.25,,
NCCNc1cc2c(cc1F)c(=O)c(C(=O)O)cn2C1CC1,> 64,,,> 64,> 64,> 64,> 64,> 64,> 64,> 64,,> 64
CC[C@H]1OC(=O)[C@H](C)[C@@H](O[C@H]2C[C@@](C)(OC)[C@@H](OC(=O)CCN3CCN(c4cc5c(cc4F)c(=O)ccn5C4CC4)CC3)[C@H](C)O2)[C@H](C)[C@@H](O[C@@H]2O[C@H](C)C[C@H](N(C)C)[C@H]2O)[C@](C)(OC)C[C@@H](C)NC(=O)[C@H](C)[C@@H](O)[C@]1(C)O,64,,,> 64,1,8,1,< 0.13,< 0.13,> 64,,8
